Measured values reported in patent US8067204B2, “Long-chain chondroitin sugar chain and method for producing the same and method for promoting synthesis of chondroitin” (Seikagaku Corporation, priority 2005, dated 2011).

Target: T1, bacterial cell enzyme (E. coli expressing CH polymerase K4CP) (Escherichia coli, UniProt Q8L0V4)
T1 construct: His tag (from vector pTrcHis); expressed in transfected cells; host or cells: E. coli transformed with the pTrcHis-K4CP vector and induced with IPTG; The whole-cell pellet was used as the enzyme; TOP10 is named only as the preferred host
Experiment: Incorporation of [3H]GalNAc into the polymer (CH) fraction by the bacterial cell enzyme
Assay type: biochemical, Escherichia coli K4 strain
Conditions: for influence of surfactant on incorporation of [3H]GalNAc: FIG. 4
Method: According to the method described in Japanese Patent Application No. 2003-199583, the gene of the CH polymerase (K4CP) enzyme derived from E. coli and an expression vector were prepared. the plasmid pTrcHis (manufactured by Invitrogen Corporation) was used as the expression vector. The expression vector obtained by the method was introduced to E. coli. The E. coli was cultured at 37° C. in an ampicillin-containing LB medium until absorbance of the culture medium reached about 0.6 at a wavelength of 600 nm. β-isopropylthiogalactoside (IPTG), which is an expression induction molecule, was added to the culture medium in such an amount that attains a final concentration of 1 mM, and culture was further performed at 37° C. for 3 hours to induce an enzyme expression. 1 ml of the culture medium was taken and transferred to a centrifugation tube to undergo centrifugation at 10,000 rpm for 1 minute. After the supernatant was discarded, a cell precipitate was used a bacterial cell enzyme. Further, the cell precipitate can maintain the enzymatic activity at least for 1 year by storing at −80° C.
To the bacterial cell enzyme obtained in Example 1, 50 mM of Tris-HCl (pH of 7.2) buffer solution containing 20 mM of MnCl2, 150 mM of NaCl, 0.1 nmol of CH6, 3 nmol of UDP-GalNAc, 0.2 μCi of UDP-[^3H] GalNAc, and 3 nmol of UDP-GlcUA, and a surfactant (Nymeen S-215; manufactured by NOF CORPORATION) at a final concentration of 0, 0.1, 0.2, 0.4, 1.0, or 2.0% was added and suspended. Each of the suspensions was shaken at 30° C. for 15 hours. After the reaction, each of the suspensions was heat-treated for 10 minutes in boiling water, and then centrifuged at 15,000 rpm for 5 minutes to remove a precipitate. Each of the supernatants was subjected to gel filtration using Superdex peptide HR 10/30 column (manufactured by Amersham Biosciences Co., Ltd.). The sugar chains in each of the eluted solutions were detected based on the absorbance at 225 nm.
An eluted fraction which corresponds to the absorption peak residing in a polymer region was obtained, and an incorporation of [^3H] GalNAc was detected. The incorporation was shown by the ratio (%) of the incorporated radioactivity with respect to the total radioactivity as 100%.
The same test as Example 3 was performed using various kinds of surfactants each having a final concentration of 0.4% to examine how various kinds of surfactants influence on the incorporation of [^3H] GalNAc. As an enzyme, the bacterial cell enzyme produced in Example 1 was used. Further, the surfactants used are described below.
The same test as Example 3 was performed using various kinds of organic solvents each having a final concentration of 1% to examine the influence of the various kinds of organic solvents on the incorporation of [^3H] GalNAc. As an enzyme, the bacterial cell enzyme prepared in Example 1 was used. Further, the organic solvents used are described below.
The incorporation was shown by the ratio (%) of the incorporated radioactivity with respect to the total radioactivity of [^3H] GalNAc used as 100%. It should be noted that the term “without organic solvent” in FIG. 5 means a case where the bacterial cell enzyme was reacted in the absence of organic solvents.
Besides, in order to examine the concentration dependency in the case of using chloroform as an organic solvent, the same test as Example 3 was performed by setting chloroform concentration in the enzyme reaction solution to 0, 0.5, 1.0, 2.0, 5.0, or 10.0%, thereby the amount of incorporation of [^3H] GalNAc in the polymer fraction was examined.

[1] = surfactant final concentration 0.4%

T1 sequence (Q8L0V4 whole entry): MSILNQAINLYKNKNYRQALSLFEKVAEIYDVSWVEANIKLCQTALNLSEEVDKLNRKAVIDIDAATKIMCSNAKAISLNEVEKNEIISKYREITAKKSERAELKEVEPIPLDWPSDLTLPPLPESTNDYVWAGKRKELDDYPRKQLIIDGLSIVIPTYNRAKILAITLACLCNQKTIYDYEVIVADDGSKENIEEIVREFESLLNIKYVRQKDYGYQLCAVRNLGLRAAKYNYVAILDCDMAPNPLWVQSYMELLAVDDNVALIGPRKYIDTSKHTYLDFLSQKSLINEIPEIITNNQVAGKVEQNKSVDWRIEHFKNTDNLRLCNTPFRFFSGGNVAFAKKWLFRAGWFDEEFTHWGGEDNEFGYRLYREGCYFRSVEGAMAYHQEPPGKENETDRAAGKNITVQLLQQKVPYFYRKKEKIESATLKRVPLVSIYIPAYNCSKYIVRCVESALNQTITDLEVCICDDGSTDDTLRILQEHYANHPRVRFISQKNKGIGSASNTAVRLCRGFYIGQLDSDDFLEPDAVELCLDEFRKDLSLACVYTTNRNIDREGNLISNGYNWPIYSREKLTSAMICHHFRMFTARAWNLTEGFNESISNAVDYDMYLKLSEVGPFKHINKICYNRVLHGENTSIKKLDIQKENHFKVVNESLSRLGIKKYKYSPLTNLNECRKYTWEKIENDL

## ClC(Cl)Cl [chloroform, Chloroform]
Chloroform concentration more than 0% to less than 5% (tested 0, 0.5, 1.0, 2.0, 5.0, 10.0%), FIG. 6
  incorporation of [3H]GalNAc in the polymer fraction, dependence on chloroform concentration: promoted
Organic solvent final concentration 1%, FIG. 5
  influence of organic solvent on incorporation of [3H]GalNAc: promoted the incorporation

## CCCCCCCCCS[C@@H]1O[C@H](CO)[C@@H](O[C@H]2O[C@H](CO)[C@@H](O)[C@H](O)[C@H]2O)[C@H](O)[C@H]1O [n-nonyl-β-D-thiomaltopyranoside]
[1]
  influence of surfactant on incorporation of [3H]GalNAc: particularly efficient incorporation

## Sucrose monocaprate
[1]
  influence of surfactant on incorporation of [3H]GalNAc: particularly efficient incorporation

## Sucrose monolaurate
[1]
  influence of surfactant on incorporation of [3H]GalNAc: particularly efficient incorporation

## polyoxyethylene octadecyl amine [Nymeen S-215]
Surfactant concentration 0.4% or more at the time of the enzyme reaction, 30° C., 15 hours, FIG. 1
  incorporation of [3H]GalNAc into the polymer fraction (ratio of incorporated to total radioactivity): about 37%
Surfactant final concentration 0.4%, Example 4, reconfirmation
  incorporation of used [3H]GalNAc into the polymer fraction: about 37%
